Test results published in patent US12053777B2, “Devices and methods for detecting cancerous cells” (Academia Sinica, priority 2019, dated 2024).

What was measured:
Assay in all cases: Capture of cells by sulfated octasaccharide-coated magnetic beads on microfluidic chip
Format in all cases: cell-based
BxPC3 = system: BxPC3
Method: (§1) Preparation of magnetic beads pre-coated with a sulfated octasaccharide. The surface of magnetic beads was respectively coated with the sulfated octasaccharides of the present invention (e.g., HS1, HS12 and etc) with three different concentrations (1 μM, 10 μM and 100 μM). Briefly, sulfated octasaccharides were first incubated with Dynabeads® MyOne™ Streptavidin T1 (˜7-10×10^9 beads/mL, Ø=1 μm, Invitrogen Co., USA) in a volume ratio of 1:10 for 30 min. Then beads were collected by using a magnet for 5 min, followed by discarding the supernatant and washing thrice by using 1-mL deionized (DI) water. Finally, the coated beads were suspended in the equal volume of DI water as the initial volume of Dynabeads® taken from the vial.
(§2) The microfluidic chip constructed above was employed to capture cancerous cells. Briefly, 2×10^5 cells from various types of cancerous cell lines were suspended in 100 μL×phosphate buffered saline (PBS) buffer and loaded into six capture chambers, respectively. 10 μL of different concentrations of sulfated octasaccharides coated beads were manually pipetted in the capture chambers, and gently mixed with cells by the micropumps for 15 min. After incubation, the cells were identified and bound by the magnetic beads pre-coated with the sulfated octasaccharides of formula (I) of the present invention. Then, these captured cells were collected with a magnetic force and washed by 1×PBS buffer. After isolating, the beads and captured cells were suspended in 100 μL 1×PBS buffer, and finally loaded into a hemocytometer to calculate the capture rates.
(§3) In a pre-test, total of 8 cancer cell lines (i.e., MMNK-1, SNU-478, HuCCT-1, Huh-28, KKU-100, HepG2, BxPC3, and HCT8) were respectively loaded into the microsystem and incubated with the magnetic beads, then the captured cells were collected with a magnetic force, and finally loaded into a hemocytometer to calculate the capture rates.

HCT8 = system: HCT8
Method: as §1, §2, §3

HepG2 = system: HepG2
Method: as §1, §2, §3

HuCCT-1 = details: for capture rate: HuCCT-1 cells; for capture rate, in words: metastasized CCA cells (HuCCT-1)
Method: as §1, §2, §3

KKU-100 = KKU-100 cells
Method: as §1, §2, §3

MMNK-1 = details: for capture rate: MMNK-1 cells; for capture rate, in words: normal cells (MINK-1)
Method: as §1, §2, §3

SNU-478 = SNU-478 cells
Method: as §1, §2, §3

Huh-28 [1] = details: for specificity of capture among the eight cell lines: Huh28, a cholangiocarcinoma (CCA) cell line, versus the other cell lines; for capture rate: Huh-28 cells
Method: as §1, §2, §3
FIG. 2 illustrates that the cancer cells, Huh-28, could be successfully captured by magnetic beads pre-coated with HS 1 of 100 μM. Huh-28 cells before being captured by magnetic beads are depicted in FIG. 2, panel a. After well mixing Huh-28 cells and beads for 30 mins, cells were surrounded by beads (FIG. 2, panel b). The supernatant collection through an isolation process by magnetic force after 30-min incubation is depicted in FIG. 2, panel c.

Huh-28 [2] = details: Huh-28 cells; EpCAM-coated beads

Molecule	capture rate (BxPC3; beads coated with HS at 1 μM)	capture rate (BxPC3; beads coated with HS at 10 μM)	capture rate (BxPC3; beads coated with HS at 100 μM)	capture rate (HCT8; beads coated with HS at 1 μM)	capture rate (HCT8; beads coated with HS at 10 μM)	capture rate (HCT8; beads coated with HS at 100 μM)	capture rate (HepG2; beads coated with HS at 1 μM)	capture rate (HepG2; beads coated with HS at 10 μM)	capture rate (HepG2; beads coated with HS at 100 μM)	capture rate (HuCCT-1; beads coated with HS at 1 μM)	capture rate (HuCCT-1; beads coated with HS at 10 μM)	capture rate (HuCCT-1; beads coated with HS at 100 μM)	capture rate, in words (HuCCT-1)	capture rate (KKU-100; beads coated with HS at 1 μM)	capture rate (KKU-100; beads coated with HS at 10 μM)	capture rate (KKU-100; beads coated with HS at 100 μM)	capture rate (MMNK-1; beads coated with HS at 1 μM)	capture rate (MMNK-1; beads coated with HS at 10 μM)	capture rate (MMNK-1; beads coated with HS at 100 μM)	capture rate, in words (MMNK-1)	further results
CC(=O)NC1C(O)[C@H](O)C(CO)O[C@@H]1O[C@@H]1C(C(=O)[O-])O[C@@H](O[C@@H]2C(CO)O[C@H](O[C@@H]3C(C(=O)[O-])O[C@@H](O[C@@H]4C(CO)O[C@H](O[C@@H]5C(C(=O)[O-])O[C@@H](O[C@@H]6C(CO)O[C@H](O[C@@H]7C(C(=O)[O-])O[C@@H](OCCCCCN)C(O)C7O)C(NC(C)=O)C6O)C(O)C5O)C(NC(C)=O)C4O)C(O)C3O)C(NC(C)=O)C2O)C(O)C1O.[Na+].[Na+].[Na+].[Na+] (stereo partly drawn) [HS 1, 5-Aminopentyl (2-acetamido-2-deoxy-α-D-glucopyranosyl)-(1→4)-α-L-idopyranosiduronyl-(1→4)-(2-acetamido-2-deoxy-α-D-glucopyranosyl)-(1→4)-α-L-idopyranosiduronyl-(1→4)-(2-acetamido-2-deoxy-α-D-glucopyranosyl)-(1→4)-α-L-idopyranosiduronyl-(1→4)-(2-acetamido-2-deoxy-α-D-glucopyranosyl)-(1→4)-α-L-idopyranosiduronate]	15 ± 5%	18 ± 4%	13 ± 7%	18 ± 5%	14 ± 4%	13 ± 3%	12 ± 0%	16 ± 6%	10 ± 4%	4 ± 1%	6 ± 2%	4 ± 1%	relatively low	40 ± 10%	46 ± 1%	51 ± 2%	58 ± 11%	52 ± 6%	34 ± 5%	relatively low	capture rate (SNU-478; beads coated with HS at 1 μM): 23 ± 13%; capture rate (SNU-478; beads coated with HS at 10 μM): 20 ± 8%; capture rate (SNU-478; beads coated with HS at 100 μM): 22 ± 7%; specificity of capture among the eight cell lines (Huh-28 [1]): highly specific to Huh28; capture rate (Huh-28 [1]; beads coated with HS at 1 μM): 65 ± 20%; capture rate (Huh-28 [1]; beads coated with HS at 10 μM): 70 ± 10%; capture rate (Huh-28 [1]; beads coated with HS at 100 μM): 78 ± 14%; capture rate (Huh-28 [1]; beads coated with HS at 100 μM, listed as HS1): 78±14%; capture of Huh-28 cells seen in photographs (FIG. 2) (Huh-28 [1]; beads coated at 100 μM, 30-min incubation, few cells left in supernatant): Almost all of the Huh-28 cells were captured and isolated
NCCCCCO[C@@H]1O[C@H](C(=O)O)[C@@H](O[C@H]2O[C@H](COS(=O)(=O)O)[C@@H](O[C@@H]3O[C@@H](C(=O)O)[C@@H](O[C@H]4O[C@H](COS(=O)(=O)O)[C@@H](O[C@@H]5O[C@H](C(=O)O)[C@@H](O[C@H]6O[C@H](COS(=O)(=O)O)[C@@H](O[C@@H]7O[C@@H](C(=O)O)[C@@H](O[C@H]8O[C@H](COS(=O)(=O)O)[C@@H](O)[C@H](O)[C@H]8NS(=O)(=O)O)[C@H](O)[C@H]7OS(=O)(=O)O)[C@H](O)[C@H]6NS(=O)(=O)O)[C@H](O)[C@H]5OS(=O)(=O)O)[C@H](O)[C@H]4NS(=O)(=O)O)[C@H](O)[C@H]3OS(=O)(=O)O)[C@H](O)[C@H]2NS(=O)(=O)O)[C@H](O)[C@H]1OS(=O)(=O)O [HS 12]	16 ± 6%	11 ± 3%	7 ± 3%	16 ± 3%	13 ± 0%	9 ± 2%	14 ± 1%	11 ± 4%	9 ± 6%	5 ± 1%	5 ± 2%	4 ± 2%	relatively low	42 ± 3%	44 ± 2%	41 ± 11%	55 ± 7%	47 ± 20%	16 ± 8%	relatively low	capture rate (SNU-478; beads coated with HS at 1 μM): 20 ± 5%; capture rate (SNU-478; beads coated with HS at 10 μM): 17 ± 7%; capture rate (SNU-478; beads coated with HS at 100 μM): 16 ± 8%; specificity of capture among the eight cell lines (Huh-28 [1]): highly specific to Huh28; capture rate (Huh-28 [1]; beads coated with HS at 1 μM): 66 ± 6%; capture rate (Huh-28 [1]; beads coated with HS at 10 μM): 67 ± 3%; capture rate (Huh-28 [1]; beads coated with HS at 100 μM): 73±4%
EpCAM: epithelial cell adhesion molecule (EpCAM)-coated beads, comparison capture reagent (protein, UniProt P16422 24-314, looked up, coated on beads, epithelial cell adhesion molecule (EpCAM)-coated beads, comparison capture reagent) Epithelial cell adhesion …: QEECVCENYKLAVNCFVNNNRQCQCTSVGAQNTVICSKLAAKCLVMKAEMNGSKLGRRAKPEGALQNNDGLYDPDCDESGLFKAKQCNGTSMCWCVNTAGVRRTDKDTEITCSERVRTYWIIIELKHKAREKPYDSKSLRTALQKEITTRYQLDPKFITSILYENNVITIDLVQNSSQKTQNDVDIADVAYYFEKDVKGESLFHSKKMDLTVNGEQLDLDPGQTLIYYVDEKAPEFSMQGLKAGVIAVIVVVVIAVVAGIVVLVISRKKRMAKYEKAEIKEMGEMHRELNA	–	–	–	–	–	–	–	–	–	–	–	–	–	–	–	–	–	–	–	–	capture rate (BxPC3; EpCAM-coated beads): 45 ± 6%; capture rate (HCT8; EpCAM-coated beads): 22 ± 3%; capture rate (HepG2; EpCAM-coated beads): 44 ± 7%; capture rate (HuCCT-1; EpCAM-coated beads): 67 ± 11%; capture rate (KKU-100; EpCAM-coated beads): 51 ± 5%; capture rate (MMNK-1; EpCAM-coated beads): 58 ± 8%; capture rate (SNU-478; EpCAM-coated beads): 74 ± 6%; capture rate (Huh-28 [2]): 58±19%
